Assay [1] concerns the target T1, α1G T-type calcium channel (Rattus norvegicus, UniProt O54898).
T1 construct: expressed in transfected cells; host or cells: HEK293 stably expressing α1G (α1G HEK293, control) and Kir2.1+α1G HEK293
The assay can be described thus: T-type calcium channel current, whole-cell patch-clamp. The following applies: activated at about -30 mV; Ni2+ 1 μM to 1 mM, mibefradil 0.1 to 10 μM. The class given is cell-based.
Experimental: EPC-9 amplifier (HEKA, Germany) was used to determine the current of T-type calcium channel in a single cell level by electrophysiological whole-cell patch-clamp method. An extracellular solution for determining T-type calcium channel activity comprised NaCl 140 mM, CaCl2 2 mM and HEPES 10 mM (pH 7.4), whereas an intracellular solution comprised KCl 130 mM, HEPES 10 mM, EGTA 11 mM and MgATP 5 mM (pH 7.4).
The prepared intracellular solution was introduced into a microglass electrode of about 3–4 MΦ resistance. Then, the single cell was pricked with the electrode to fix the cell membrane voltage as about −100 mV in a whole-cell recording mode. Thereafter, the inward current was determined, in which the current was induced by T-type calcium channel activity when the hypopolarization was caused by about −30 mV (50 ms duration) approximately every 10 seconds.
Furthermore, the characteristics of the channel were analyzed by comparing with IC50 value for Ni^2+ and mibefradil, the conventionally known T-type calcium channel inhibitor. About 1 μM to 1 mM of Ni^2+ and about 0.1 to 10 μM of mibefradil were administered to the cell, respectively, according to the electrophysiological whole-cell patch-clamp method as described above, and then the inhibition (%) of the maximum of the inward current, caused through T-type calcium channel activated at or about −30 mV, was determined.

Assay [2] deals with Kir2.1+α1G HEK293 cell. The assay can be described thus: Intracellular calcium with fura-2/AM, cell line of the invention. The format is cell-based, human. As to conditions: 70 mM KCl. How it is done: (§1) The calcium concentration in the cell was determined by using fura-2/AM as a fluorescent Ca^2+ label. The cells were primarily incubated with 5 μM fura-2/AM and 0.001% Pluronic F-127 in HEPES buffer solution (150 mM NaCl, 5 mM KCl, 1 mM MgCl2, 2 mM CaCl2, 10 mM HEPES, 10 mM glucose, pH 7.4) at a room temperature for about 40 to 60 minutes and then washed several times with HEPES buffer solution. After stablilzing the cells for about 10 minutes, the cells were selectively exposed to 340 nm and 380 nm by using an inverted microscope. Thereafter, the emitter fluorescence light that was entered through 515 nm long-pass filter was passed through a cooled CCD […]. The light was converted into the intracellular calcium concentration by digital fluorescence analyzer to determine the calcium concentration.
Background: Calcium assays in cells follow changes in intracellular calcium, usually with a dye or a luminescent sensor.

Assay [3] concerns α1G HEK293 cell. Kind of assay: Intracellular calcium with fura-2/AM, control cell. The format is cell-based, human. The following applies: 70 mM KCl. How it is done:
as §1

Assay [4] concerns the target T2, Kir2.1 (Homo sapiens, UniProt P63252).
T2 construct: expressed in transfected cells; host or cells: HEK293 cells stably expressing α1G T-type calcium channel, transduced with Kir2.1-pMSCVpuro retrovirus (Kir2.1+α1G HEK293)
T2 sequence (P63252 1-427): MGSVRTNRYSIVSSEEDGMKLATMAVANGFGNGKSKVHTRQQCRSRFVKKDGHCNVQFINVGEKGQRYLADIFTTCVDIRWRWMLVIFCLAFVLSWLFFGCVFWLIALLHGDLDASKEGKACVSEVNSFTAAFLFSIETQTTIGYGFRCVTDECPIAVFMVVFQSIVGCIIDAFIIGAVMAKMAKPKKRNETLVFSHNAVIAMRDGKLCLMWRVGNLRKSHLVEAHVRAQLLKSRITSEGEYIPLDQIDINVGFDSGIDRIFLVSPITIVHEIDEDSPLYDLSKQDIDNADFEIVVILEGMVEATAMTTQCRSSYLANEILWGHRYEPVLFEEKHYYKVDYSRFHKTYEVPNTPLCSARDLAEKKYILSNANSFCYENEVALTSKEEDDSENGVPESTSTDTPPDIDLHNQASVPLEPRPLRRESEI
Kind of assay: Kir2.1 channel current, whole-cell patch-clamp. The following applies: Kir2.1+α1G HEK293 cell; -140 to -60 mV step pulse; 1-100 μM Ba2+, 5-500 μM Cs+. The class given is cell-based. The method, then:
Further, the current of IRK-type potassium channel, Kir2.1 was also determined in a single cell level by the whole-cell patch-clamp method. An extracellular solution for determining IRK-type potassium channel activity comprised NaCl 135 mM, KCl 5.4 mM, CaCl2 1.8 mM, MgCl2 1 mM, HEPES 5 mM and glucose 10 mM (pH 7.4). An intracellular solution comprised D-gluconic acid (potassium salt form) 140 mM, MgCl2 2 mM, EGTA 1 mM, HEPES 5 mM and Na2ATP 1 mM (pH 7.4).
After the cell membrane voltage was fixed as about −60 mV in a whole-cell recording mode, −140 to −60 mV of 200 ms step pulse was applied to determine the inward current induced by potassium inwardly-rectifying channel activation of HEK293 cell.
Furthermore, the characteristics of Kir2.1 channel were analyzed by comparing with IC50 value for Ba^2+ and Cs^+, the conventionally known IRK-type potassium channel inhibitor. For this, Kir2.1 channel activity determination method, as discussed above, was used and the inhibition by the known Kir2.1 inhibitor, Ba^2+ and Cs^+, was observed.
FIG. 4e and FIG. 4f are graphs showing the maximum current that occurred at each voltage when 1–100 μM Ba^2+ and 5–500 μM Cs^+ known as Kir2.1 inhibitor were administered to Kir2.1+α1G HEK293 cell under −140 to −60 mV step pulse.
On the technique in general: The patch-clamp technique gives a direct electrical read-out from membranes.

T1 sequence (O54898 whole entry): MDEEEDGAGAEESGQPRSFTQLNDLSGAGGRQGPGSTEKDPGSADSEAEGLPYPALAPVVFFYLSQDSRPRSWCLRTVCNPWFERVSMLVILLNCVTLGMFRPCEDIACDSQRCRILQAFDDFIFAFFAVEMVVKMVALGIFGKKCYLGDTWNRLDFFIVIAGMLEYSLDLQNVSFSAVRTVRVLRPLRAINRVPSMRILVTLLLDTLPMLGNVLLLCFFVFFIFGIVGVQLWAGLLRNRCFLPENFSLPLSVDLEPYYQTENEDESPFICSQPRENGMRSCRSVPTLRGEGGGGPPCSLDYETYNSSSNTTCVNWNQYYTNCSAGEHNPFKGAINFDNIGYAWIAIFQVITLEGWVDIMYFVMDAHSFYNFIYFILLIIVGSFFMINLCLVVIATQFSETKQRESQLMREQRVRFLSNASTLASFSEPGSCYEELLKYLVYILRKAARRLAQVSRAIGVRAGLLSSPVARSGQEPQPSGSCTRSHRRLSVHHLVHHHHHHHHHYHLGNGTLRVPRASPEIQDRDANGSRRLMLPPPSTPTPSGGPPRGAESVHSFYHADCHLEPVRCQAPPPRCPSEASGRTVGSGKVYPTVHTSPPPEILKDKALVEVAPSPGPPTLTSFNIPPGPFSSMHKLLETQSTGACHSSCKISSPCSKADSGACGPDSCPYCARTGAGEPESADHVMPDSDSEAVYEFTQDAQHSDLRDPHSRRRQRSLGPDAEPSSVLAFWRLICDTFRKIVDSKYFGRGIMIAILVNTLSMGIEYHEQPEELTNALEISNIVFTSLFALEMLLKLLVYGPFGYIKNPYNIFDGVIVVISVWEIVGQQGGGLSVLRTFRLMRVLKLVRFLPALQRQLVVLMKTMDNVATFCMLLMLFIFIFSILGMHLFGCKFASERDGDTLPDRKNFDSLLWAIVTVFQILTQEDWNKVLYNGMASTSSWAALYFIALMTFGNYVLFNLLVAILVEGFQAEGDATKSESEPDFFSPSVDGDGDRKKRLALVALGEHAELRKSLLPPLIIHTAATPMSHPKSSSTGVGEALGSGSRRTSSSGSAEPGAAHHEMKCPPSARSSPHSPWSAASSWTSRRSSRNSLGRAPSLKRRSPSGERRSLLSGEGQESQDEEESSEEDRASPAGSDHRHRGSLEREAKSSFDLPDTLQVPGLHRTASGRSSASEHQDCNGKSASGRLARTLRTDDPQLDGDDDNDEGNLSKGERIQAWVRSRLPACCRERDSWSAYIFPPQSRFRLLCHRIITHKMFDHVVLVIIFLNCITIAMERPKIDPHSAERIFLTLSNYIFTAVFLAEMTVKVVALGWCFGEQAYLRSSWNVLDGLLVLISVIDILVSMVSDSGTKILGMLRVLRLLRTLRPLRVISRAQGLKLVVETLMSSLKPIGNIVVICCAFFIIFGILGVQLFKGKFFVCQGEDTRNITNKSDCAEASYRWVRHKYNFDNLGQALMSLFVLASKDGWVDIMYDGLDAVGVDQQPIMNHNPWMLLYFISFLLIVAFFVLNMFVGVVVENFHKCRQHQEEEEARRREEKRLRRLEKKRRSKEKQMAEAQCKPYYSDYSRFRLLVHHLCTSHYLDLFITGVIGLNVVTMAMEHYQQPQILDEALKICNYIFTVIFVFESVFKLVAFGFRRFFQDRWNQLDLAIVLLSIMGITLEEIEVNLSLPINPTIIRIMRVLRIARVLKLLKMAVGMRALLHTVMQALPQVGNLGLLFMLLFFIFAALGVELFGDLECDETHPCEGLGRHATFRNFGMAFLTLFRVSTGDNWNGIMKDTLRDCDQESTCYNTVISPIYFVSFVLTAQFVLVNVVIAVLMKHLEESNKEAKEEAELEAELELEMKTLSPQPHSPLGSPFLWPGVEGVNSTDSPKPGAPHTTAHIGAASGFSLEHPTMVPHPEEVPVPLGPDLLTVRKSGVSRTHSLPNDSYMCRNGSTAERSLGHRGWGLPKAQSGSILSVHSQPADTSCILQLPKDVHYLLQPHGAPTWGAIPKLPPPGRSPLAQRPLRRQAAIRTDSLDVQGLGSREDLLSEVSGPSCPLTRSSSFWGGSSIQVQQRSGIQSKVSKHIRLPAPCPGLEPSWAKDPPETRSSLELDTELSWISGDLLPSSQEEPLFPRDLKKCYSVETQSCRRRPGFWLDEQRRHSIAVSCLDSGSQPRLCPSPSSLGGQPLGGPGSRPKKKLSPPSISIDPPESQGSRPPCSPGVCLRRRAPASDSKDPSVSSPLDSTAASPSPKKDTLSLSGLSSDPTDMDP

With `COCC(=O)O[C@]1(CCN(C)CCCc2nc3ccccc3[nH]2)CCc2cc(F)ccc2[C@@H]1C(C)C` [mibefradil], the “IC50 for inhibition of inward current through T-type calcium channel, Kir2.1+α1G HEK293 cell compared with α1G HEK293 cell” value in assay [1] is on record as “not significantly different”. Regarding `[Cl-].[K+]` [KCl], the calcium influx result was “calcium influx is induced” in assay [2] and “does not change calcium influx” in assay [3]. With `[Ba+2]` [Ba^2+], the “inhibition of Kir2.1 current (maximum current at each voltage)” value in assay [4] is on record as “inhibited in a concentration-dependent manner”. Regarding `[Ni+2]` [Ni^2+], the “IC50 for inhibition of inward current through T-type calcium channel, Kir2.1+α1G HEK293 cell compared with α1G HEK293 cell” value in assay [1] was “not significantly different”. Consider `[Cs+]` [Cs^+], for which the “inhibition of Kir2.1 current (maximum current at each voltage)” value in assay [4] is on record as “inhibited in a concentration-dependent manner”.

The record behind these values is US6984521B2, “HEK293 cell line for activity studies and HTS system of α1G T-type Ca2+ channel” (Korea Institute of Science and Technology, priority 2003, dated 2006).
